In patent US10308663B2, “Inhibitors of PTP4A3 for the treatment of cancer” (University of Virginia Patent Foundation, priority 2015, dated 2019):

How the values were obtained:
[1] = test system: A2780CW (Cisplatin sensitive); assay: Ovarian cancer cell drug susceptibility (Alamar blue), A2780CW; type: cell-based, human; conditions: 44 h + 4 h Alamar blue
SKOV3 = assay: Ovarian cancer cell drug susceptibility (Alamar blue), SKOV3; type: cell-based, human; conditions: 44 h + 4 h Alamar blue
OVCAR-4 = assay: Ovarian cancer cell drug susceptibility (Alamar blue), OVCAR-4; type: cell-based, human; conditions: 44 h + 4 h Alamar blue
[2] = test system: A2780CP20 (Cisplatin resistant); assay: Ovarian cancer cell drug susceptibility (Alamar blue), A2780CP20; type: cell-based, human; conditions: 44 h + 4 h Alamar blue
PTP1B = PTP1B (Homo sapiens (Human), UniProt P18031); conditions: DiFMUP as a substrate; reported by Hoeger et al.; cited from earlier work
PTP1B, sequence (P18031 whole entry, species assumed): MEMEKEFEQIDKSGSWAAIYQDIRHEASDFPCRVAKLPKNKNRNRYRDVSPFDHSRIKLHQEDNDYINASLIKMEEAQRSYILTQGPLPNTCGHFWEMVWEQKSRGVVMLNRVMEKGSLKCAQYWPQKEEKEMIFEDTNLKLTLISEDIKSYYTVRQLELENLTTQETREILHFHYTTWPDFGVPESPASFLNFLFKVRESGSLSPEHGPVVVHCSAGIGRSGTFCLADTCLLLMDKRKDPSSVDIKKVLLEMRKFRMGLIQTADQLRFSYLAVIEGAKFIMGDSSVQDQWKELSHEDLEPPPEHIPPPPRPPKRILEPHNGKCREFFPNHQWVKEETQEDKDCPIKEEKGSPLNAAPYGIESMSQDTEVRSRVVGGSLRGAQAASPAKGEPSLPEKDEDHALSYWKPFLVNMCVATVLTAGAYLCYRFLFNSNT

[3] = test system: MsTuWT cells (Ptp4a3 wildtype); assay: Cell adhesion assay (xCELLigence), MsTuWT; type: cell-based, mouse; conditions: xCELLigence Cell Index
SHP2 cat = SHP2 cat (Homo sapiens (Human), UniProt Q06124); conditions: DiFMUP as a substrate; reported by Hoeger et al.; cited from earlier work
SHP2 cat, sequence (Q06124 247-517): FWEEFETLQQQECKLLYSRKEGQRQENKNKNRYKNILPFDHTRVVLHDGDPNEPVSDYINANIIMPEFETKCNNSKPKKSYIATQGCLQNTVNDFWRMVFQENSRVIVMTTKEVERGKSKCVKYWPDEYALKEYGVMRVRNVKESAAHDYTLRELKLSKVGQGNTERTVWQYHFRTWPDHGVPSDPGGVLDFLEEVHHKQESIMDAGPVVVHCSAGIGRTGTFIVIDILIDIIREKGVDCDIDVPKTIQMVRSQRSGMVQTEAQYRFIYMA

PTPb cat = PTPb cat (Homo sapiens (Human), UniProt P23467); conditions: DiFMUP as a substrate; reported by Hoeger et al.; cited from earlier work
PTPb cat, sequence (P23467 1703-1963): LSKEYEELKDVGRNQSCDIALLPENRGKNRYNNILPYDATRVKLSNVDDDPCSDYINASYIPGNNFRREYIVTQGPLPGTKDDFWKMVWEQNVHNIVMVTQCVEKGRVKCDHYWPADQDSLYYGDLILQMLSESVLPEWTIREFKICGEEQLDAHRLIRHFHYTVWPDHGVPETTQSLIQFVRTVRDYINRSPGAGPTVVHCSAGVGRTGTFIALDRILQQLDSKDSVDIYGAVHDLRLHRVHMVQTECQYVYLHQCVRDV

[4] = Spontaneous conversion of 5 to 6 under assay conditions; type: physicochemical; conditions: 90 min, in the presence or absence of DTT
PTP-Tcell = PTP-Tcell (Homo sapiens (Human), UniProt P17706); conditions: DiFMUP as a substrate; reported by Hoeger et al.; cited from earlier work
PTP-Tcell, sequence (P17706 whole entry): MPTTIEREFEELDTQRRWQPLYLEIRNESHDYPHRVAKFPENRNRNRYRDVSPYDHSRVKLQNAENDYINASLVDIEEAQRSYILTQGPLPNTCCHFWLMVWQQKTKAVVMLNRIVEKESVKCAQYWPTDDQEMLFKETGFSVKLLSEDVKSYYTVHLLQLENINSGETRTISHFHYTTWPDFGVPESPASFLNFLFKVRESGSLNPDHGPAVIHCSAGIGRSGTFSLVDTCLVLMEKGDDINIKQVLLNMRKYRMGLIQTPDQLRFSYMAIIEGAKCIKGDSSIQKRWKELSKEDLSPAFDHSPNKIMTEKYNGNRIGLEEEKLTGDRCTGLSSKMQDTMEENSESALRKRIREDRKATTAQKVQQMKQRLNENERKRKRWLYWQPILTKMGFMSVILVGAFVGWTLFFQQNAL

PTPeD1 = PTPeD1 (Homo sapiens (Human), UniProt P23469); conditions: DiFMUP as a substrate; reported by Hoeger et al.; cited from earlier work
PTPeD1, sequence (P23469 135-394): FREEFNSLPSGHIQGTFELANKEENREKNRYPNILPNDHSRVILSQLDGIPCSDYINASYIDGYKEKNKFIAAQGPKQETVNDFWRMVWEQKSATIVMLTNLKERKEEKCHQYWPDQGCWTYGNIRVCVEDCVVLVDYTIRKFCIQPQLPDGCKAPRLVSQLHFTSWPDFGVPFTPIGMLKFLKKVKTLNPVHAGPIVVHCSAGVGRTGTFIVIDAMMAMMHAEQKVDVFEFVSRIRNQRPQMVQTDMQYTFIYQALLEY

LARD1 = LARD1 (Homo sapiens (Human), UniProt P10586); conditions: DiFMUP as a substrate; reported by Hoeger et al.; cited from earlier work
LARD1, sequence (P10586 1352-1607): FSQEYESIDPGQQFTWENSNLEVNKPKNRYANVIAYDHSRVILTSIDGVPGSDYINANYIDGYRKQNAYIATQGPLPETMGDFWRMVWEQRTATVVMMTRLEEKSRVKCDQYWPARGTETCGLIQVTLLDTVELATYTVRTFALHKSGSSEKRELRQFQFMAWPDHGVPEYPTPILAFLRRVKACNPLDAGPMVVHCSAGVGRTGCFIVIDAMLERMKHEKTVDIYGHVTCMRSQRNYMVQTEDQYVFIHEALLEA

PTPgD1 = PTPgD1 (Homo sapiens (Human), UniProt P23470); conditions: DiFMUP as a substrate; reported by Hoeger et al.; cited from earlier work
PTPgD1, sequence (P23470 848-1119): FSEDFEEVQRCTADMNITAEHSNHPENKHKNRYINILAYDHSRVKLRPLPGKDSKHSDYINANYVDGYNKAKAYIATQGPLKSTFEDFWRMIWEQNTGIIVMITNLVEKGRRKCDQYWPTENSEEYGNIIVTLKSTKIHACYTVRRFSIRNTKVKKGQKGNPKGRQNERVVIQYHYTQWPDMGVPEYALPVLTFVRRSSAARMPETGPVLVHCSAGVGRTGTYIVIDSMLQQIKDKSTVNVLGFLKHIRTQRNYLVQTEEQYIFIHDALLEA

CD45 = CD45 (Homo sapiens (Human), UniProt P08575); conditions: DiFMUP as a substrate; reported by Hoeger et al.; cited from earlier work
CD45, sequence (P08575 26-1306, species assumed): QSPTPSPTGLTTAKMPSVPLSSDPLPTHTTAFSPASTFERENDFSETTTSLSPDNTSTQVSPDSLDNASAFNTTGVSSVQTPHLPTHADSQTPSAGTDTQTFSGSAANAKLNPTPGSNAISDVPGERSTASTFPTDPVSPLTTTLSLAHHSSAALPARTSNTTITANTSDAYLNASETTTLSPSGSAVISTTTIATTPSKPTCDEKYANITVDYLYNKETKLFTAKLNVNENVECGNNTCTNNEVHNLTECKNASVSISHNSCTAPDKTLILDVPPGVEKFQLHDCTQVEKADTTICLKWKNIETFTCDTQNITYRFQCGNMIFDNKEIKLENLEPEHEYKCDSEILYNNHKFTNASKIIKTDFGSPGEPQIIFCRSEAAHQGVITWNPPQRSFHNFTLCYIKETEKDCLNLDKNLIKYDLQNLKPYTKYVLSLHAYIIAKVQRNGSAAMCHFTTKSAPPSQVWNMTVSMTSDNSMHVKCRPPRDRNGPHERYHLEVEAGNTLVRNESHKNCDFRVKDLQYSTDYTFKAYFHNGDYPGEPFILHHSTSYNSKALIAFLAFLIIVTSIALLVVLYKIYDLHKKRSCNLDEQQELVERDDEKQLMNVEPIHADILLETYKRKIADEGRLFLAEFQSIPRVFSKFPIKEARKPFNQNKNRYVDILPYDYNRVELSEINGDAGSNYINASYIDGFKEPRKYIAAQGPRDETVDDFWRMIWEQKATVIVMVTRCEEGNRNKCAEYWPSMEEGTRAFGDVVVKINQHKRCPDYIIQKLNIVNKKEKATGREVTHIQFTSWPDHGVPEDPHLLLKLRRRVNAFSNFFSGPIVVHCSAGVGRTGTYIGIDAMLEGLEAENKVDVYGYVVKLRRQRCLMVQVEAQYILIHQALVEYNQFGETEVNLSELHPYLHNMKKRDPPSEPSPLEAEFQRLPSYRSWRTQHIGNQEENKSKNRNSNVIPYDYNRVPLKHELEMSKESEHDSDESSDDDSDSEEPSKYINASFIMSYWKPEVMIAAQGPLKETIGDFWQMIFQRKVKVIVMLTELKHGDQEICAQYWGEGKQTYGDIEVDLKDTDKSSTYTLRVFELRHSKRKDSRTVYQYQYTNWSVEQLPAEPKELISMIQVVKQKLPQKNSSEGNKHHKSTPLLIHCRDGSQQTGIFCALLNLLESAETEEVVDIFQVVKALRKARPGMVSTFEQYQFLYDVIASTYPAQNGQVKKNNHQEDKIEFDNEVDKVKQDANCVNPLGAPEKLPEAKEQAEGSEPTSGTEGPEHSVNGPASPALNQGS

PTPaD1 = PTPaD1 (Homo sapiens (Human), UniProt P18433); conditions: DiFMUP as a substrate; reported by Hoeger et al.; cited from earlier work
PTPaD1, sequence (P18433 241-501): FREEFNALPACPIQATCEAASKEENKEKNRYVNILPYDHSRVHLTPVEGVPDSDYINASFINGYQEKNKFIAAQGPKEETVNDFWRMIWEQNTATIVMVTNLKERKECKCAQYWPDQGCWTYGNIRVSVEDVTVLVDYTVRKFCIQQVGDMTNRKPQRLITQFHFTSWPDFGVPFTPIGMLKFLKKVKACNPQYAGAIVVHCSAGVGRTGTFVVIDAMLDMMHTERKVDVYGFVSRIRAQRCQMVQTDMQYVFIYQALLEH

HCP cat = HCP cat (Homo sapiens (Human), UniProt P29350); conditions: DiFMUP as a substrate; reported by Hoeger et al.; cited from earlier work
HCP cat, sequence (P29350 244-515): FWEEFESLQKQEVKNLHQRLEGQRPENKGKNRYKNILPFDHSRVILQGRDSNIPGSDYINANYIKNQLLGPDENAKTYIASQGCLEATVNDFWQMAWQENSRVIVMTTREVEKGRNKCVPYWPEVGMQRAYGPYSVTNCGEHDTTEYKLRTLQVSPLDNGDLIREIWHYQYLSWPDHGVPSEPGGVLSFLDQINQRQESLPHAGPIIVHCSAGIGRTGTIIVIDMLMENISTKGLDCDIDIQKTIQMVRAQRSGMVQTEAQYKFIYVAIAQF

Structure (SMILES): O=C1NC(=S)S/C1=C/c1cc(Br)ccc1OCc1ccccc1Br [BR-1]
- EC50 ([1]; Homo sapiens): 26.4 ± 1 µM
- EC50 (SKOV3; Homo sapiens, SK-OV-3): 48.3 ± 9.1 µM
- EC50 (OVCAR-4; Homo sapiens, OVCAR-4): 48.5 ± 7.9 µM
- EC50 ([2]; Homo sapiens): 17.3 ± 2 µM

Structure (SMILES): N.N.[Cl][Pt][Cl] [Cisplatin]
- EC50 [1]: 3.7 ± 1.8 µM
- EC50 (SKOV3): > 100 µM
- EC50 (OVCAR-4): 30.3 ± 4.4 µM
- EC50 [2]: > 100 µM

Structure (SMILES): O=c1[nH]c(=O)c2cc(-c3ccccc3)sc2[nH]1 [JMS-557-038]
- EC50 ([1]; Homo sapiens): > 50 µM
- EC50 (SKOV3; Homo sapiens, SK-OV-3): > 50 µM
- EC50 (OVCAR-4; Homo sapiens, OVCAR-4): > 50 µM
- EC50 ([2]; Homo sapiens): > 50 µM

Structure (SMILES): Nc1c[nH]c(=O)c2cc(-c3ccccc3)sc12 [Thienopyridone (5), 7-amino-2-phenylthieno[3,2-c]pyridin-4(5H)-one]
- IC50 (PTP1B): > 100 µM
- EC50 ([1]; Homo sapiens): 4.5 ± 0.6 µM
- MsTuWT adherence [3]: inhibited
- EC50 (SKOV3; Homo sapiens, SK-OV-3): 28.8 ± 2.2 µM
- EC50 (OVCAR-4; Homo sapiens, OVCAR-4): 15.5 ± 2.4 µM
- IC50 (SHP2 cat): > 100 µM
- IC50 (PTPb cat): 67 µM
- spontaneous conversion of 5 to 6 [4]: not detect quantifiable (>5%) spontaneous conversion
- IC50 (PTP-Tcell): > 100 µM
- IC50 (PTPeD1): > 100 µM
- IC50 (LARD1): > 100 µM
- IC50 (PTPgD1): > 100 µM
- IC50 (CD45): > 100 µM
- IC50 (PTPaD1): > 100 µM
- IC50 (HCP cat): 71 µM
- EC50 ([2]; Homo sapiens): 13.1 ± 6 µM
